# Assay results from patent US20160038532A1, “Treatment of Multiple Sclerosis With Combination of Laquinimod and Glatiramer Acetate” (TEVA PHARMACEUTICAL INDUSTRIES, LTD., priority 2011, published 2016).
# Where “and” joins values, the source holds several entries; their conditions need not be identical. Equal entries are not always repeated. Where two headings read alike, the source gives them in different places. Marks after values point to notes of the source that are not given here.
# How the values were obtained:
# [1] = tested on: relapsing remitting (RR) EAE; experiment: Relapsing remitting EAE in Biozzi mice, combination study (Example 2.6); format: in vivo; design: MMS value / IMS value: scale not given here; conditions: for inhibition at 5 mg/kg / inhibition at 12.5 mg/kg / inhibition at 25 mg/kg: Mus musculus, 1416 h
# Protocol: EAE is an animal model for multiple sclerosis. In the Biozzi AB/H EAE mice, a RR EAE can be induced. […] Re-injection of an encephalitogen can induce a chronic relapsing disease that enables measuring long-term effects on subsequent relapses rather than immediate effects.
# The EAE induction was performed according to procedure “RR-EAE.Biozzi” The Biozzi mice were weighed and injected subcutaneously and re-injected one week later with encephalitogenic agent (MSCH emulsion). 0.3 mL of the encephalitogenic agent containing 1.0 mg of MSCH and 200.0 μg of MT was injected subcutaneously, at two sites in the right flank of each mouse (0.15 mL at each site). The second injection was done in a similar manner in the left flank, one week later.
# On the day of first injection of encephalotigen, the Biozzi mice were randomly allocated to eight treatment groups as follows: Tables 16-17.
# The 5.0 mg/mL laquinimod stock solution was diluted 1:5 to yield 1 mg/mL.
# The mice in all the groups were administered daily by oral gavage a volume dose level of […] of the respective test formulations from the day the mice are allocated to the treatment groups (first injection of encephalitogen) for 59 consecutive days until the termination of the study.
# The mice were examined and scored according to the following table, until the termination of the study (60 days after initiation of treatment).
# The activity of the test articles for the first and second phase of RR EAE was calculated by comparing the incidence of disease, mortality, onset and duration of disease, group mean score and mean maximal score to the control group. Calculations were carried separately and together for the first and the second relapse.
# [2] = tested on: MOG-induced EAE; experiment: MOG-induced EAE with GA blocking and s.c. daily GA (Example 2.4); format: in vivo, C57B1 mice; design: key to MMS value / GMS value: clinical score per grading system; 1+ = sick, 5 = dead/killed; conditions: alone or + GA 250 mg/kg s.c. daily 10 d
# Protocol: The C57B1 strain of mouse was selected, as it is an established EAE model.
# Laquinimod was administered daily orally for 30 days at dose level of 5.0 mg/kg or 25.0 mg/kg.
# Disease was induced in the mice by the injection of the encephalitogenic emulsion (MOG/CFA). Laquinimod was administered orally for 30 consecutive days from the initiation of the study.
# EAE induction EAE was induced by injecting the encephalitogenic mixture (emulsion) consisting of MOG (150.0 μg/mouse). A volume of 0.2 ml of emulsion was injected subcutaneously into the flanks of the mice. Pertussis toxin was injected intraperitoneally on the day of induction and 48 hours later (total amount was 0300 μg/mouse in 0.2 ml dosage volume).
# The emulsion (for groups 2 and 3 and groups 1 and 4 to 8) were made from equal parts of oil and liquid portions (1:1) in two syringes connected to each other with Leur lock, transferred to insulin syringe and 0.2 ml was injected to the right flank of each mouse. The dose of the MOG in all the groups (1 to 8) was 150 μg/mouse.
# The test concentrations of laquinimod were prepared in purified water. For high dose (25.0 mg/kg) 2.5 mg/mL stock solution were prepared (groups #3, 6 and 8). The stock solutions were diluted 1:5 to yield 0.5 mg/mL for dose level of 5.0 mg/kg for groups 5 and 7. Laquinimod was administered to the respective groups by gavage at a volume of 0.2 ml/mouse.
# Every day one tube was thawed and brought to RT.
# Clinical signs Scaring of EAE clinical signs was started from Day 10 post EAE induction and was continued daily until Day 30. The clinical signs were recorded according to a grading system described in the table 11 below
# mice having scores of 1 and above were considered sick. When the first clinical sign appeared all mice were given food soaked in water, which was spread on different places on the bedding of the cages. An animal which continued to have score 4 for three days was killed on humane grounds and given score 5 on the next day. For calculation purposes, the score of animals that were sacrificed or died was carried forward.
# • The number of sick animals in each group were summed. • The incidence of disease was calculated as
# • The number of dead or moribund animals in each group were summed. • The mortality of disease was calculated as
# • The mean duration of disease expressed in days was calculated as
# • The mean onset of disease expressed in days was calculated as
# • The mean maximal score (MMS) of each group was calculated as
# • The daily scores of each mouse in the test group were summed and the Individual mean daily score (IMS) was calculated as […]
# [3] = tested on: MOG-induced EAE; experiment: MOG-induced EAE, laquinimod alone and with GA blocking (Example 2.1), clinical signs; format: in vivo, C57B1/6 mice; design: Mortality: concentration or dose not given beside the values
# [4] = first and second attacks together, laquinimod 5.0 mg/kg oral daily 59 d, alone or + GA 12.5 mg/kg oral
# [5] = first and second attacks together, laquinimod 12.5 mg/kg oral daily 59 d
# [6] = first and second attacks together, laquinimod 25.0 mg/kg oral daily 59 d, alone or + GA 12.5 mg/kg oral
# [7] = first attack, LAQ 5.0 mg/kg oral daily, alone or + GA 12.5 mg/kg oral
# [8] = first attack, LAQ 12.5 mg/kg oral daily
# [9] = first attack, LAQ 25.0 mg/kg oral daily, alone or + GA 12.5 mg/kg oral
# [10] = second attack, LAQ 5.0 mg/kg oral daily, alone or + GA 12.5 mg/kg oral
# [11] = second attack, LAQ 12.5 mg/kg oral daily
# [12] = second attack, LAQ 25.0 mg/kg oral daily, alone or + GA 12.5 mg/kg oral
# [13] = laquinimod 5 mg/kg/day gavage, alone or + GA-blocking 12.5 mg/kg day 0
# [14] = laquinimod 25 mg/kg/day gavage, alone or + GA-blocking 12.5 mg/kg day 0
compound,measurement,setting,value
CCN(C(=O)c1c(O)c2c(Cl)cccc2n(C)c1=O)c1ccccc1 [laquinimod],inhibition at 5 mg/kg,"[1]; first and second attacks together, laquinimod 5.0 mg/kg oral daily 59 d, alone or + GA 12.5 mg/kg oral, read-out: GMS % inhibition",21.7%
same,inhibition at 5 mg/kg,"[1]; first and second attacks together, laquinimod 5.0 mg/kg oral daily 59 d, alone or + GA 12.5 mg/kg oral, read-out: Incidence % inhibition",23.1%
same,inhibition at 5 mg/kg,"[1]; first and second attacks together, laquinimod 5.0 mg/kg oral daily 59 d, alone or + GA 12.5 mg/kg oral, read-out: MMS % inhibition",16.2%
same,inhibition at 12.5 mg/kg,"[1]; first and second attacks together, laquinimod 12.5 mg/kg oral daily 59 d, read-out: GMS % inhibition",43.5%
same,inhibition at 12.5 mg/kg,"[1]; first and second attacks together, laquinimod 12.5 mg/kg oral daily 59 d, read-out: Incidence % inhibition",23.1%
same,inhibition at 12.5 mg/kg,"[1]; first and second attacks together, laquinimod 12.5 mg/kg oral daily 59 d, read-out: MMS % inhibition",22.2%
same,inhibition at 25 mg/kg,"[1]; first and second attacks together, laquinimod 25.0 mg/kg oral daily 59 d, alone or + GA 12.5 mg/kg oral, read-out: GMS % inhibition",30.4%
same,inhibition at 25 mg/kg,"[1]; first and second attacks together, laquinimod 25.0 mg/kg oral daily 59 d, alone or + GA 12.5 mg/kg oral, read-out: Incidence % inhibition",30.8%
same,inhibition at 25 mg/kg,"[1]; first and second attacks together, laquinimod 25.0 mg/kg oral daily 59 d, alone or + GA 12.5 mg/kg oral, read-out: MMS % inhibition",27.8%
same,GMS value,[1]; [4],1.8
same,Incidence,[1]; [4],10/14
same,MMS value,[1]; [4],3.1
same,Mean Duration,[1]; [4],26.5 ± 17.0 days
same,Mortality,[1]; [4],0/14
same,GMS value,[1]; [5],1.3
same,Incidence,[1]; [5],10/14
same,MMS value,[1]; [5],2.8
same,Mean Duration,[1]; [5],17.5 ± 14.0 days
same,Mortality,[1]; [5],0/14
same,GMS value,[1]; [6],1.6
same,Incidence,[1]; [6],9/14
same,MMS value,[1]; [6],2.6
same,Mean Duration,[1]; [6],23.0 ± 16.4 days
same,Mortality,[1]; [6],0/14
same,IMS value,[1]; [7],42.9 ± 29.8
same,Incidence,[1]; [7],10/14
same,MMS % Inhibition 2,[1]; [7],19.4%
same,MMS value,[1]; [7],2.9 ± 1.9
same,Mean Duration,[1]; [7],15.4 ± 10.9 days
same,Mortality,[1]; [7],0/14
same,IMS % Inhibition 3,"[1]; first attack, LAQ 5.0 mg/kg oral daily, alone or + GA 12.5 mg/kg oral, listed as LAQ",15.6%
same,IMS % Inhibition 3,[1]; [8],53.3%
same,IMS value,[1]; [8],32.4 ± 24.9
same,Incidence,[1]; [8],10/14
same,MMS % Inhibition 2,[1]; [8],25.0%
same,MMS value,[1]; [8],2.7 ± 1.9
same,Mean Duration,[1]; [8],9.6 ± 8.6 days
same,Mortality,[1]; [8],0/14
same,IMS % Inhibition 3,[1]; [9],42.8%
same,IMS value,[1]; [9],39.7 ± 32.3
same,Incidence,[1]; [9],9/14
same,MMS value,[1]; [9],2.6 ± 2.0
same,Mean Duration,[1]; [9],13.9 ± 10.0 days
same,Mortality,[1]; [9],0/14
same,% Inhibition 1 (incidence),[1]; [10],1.8%
same,IMS % Inhibition 3,[1]; [10],18.4%
same,IMS value,[1]; [10],38.6 ± 28.5
same,Incidence,[1]; [10],10/14
same,MMS % Inhibition 2,[1]; [10],3.4%
same,MMS value,[1]; [10],2.8 ± 1.8
same,Mean Duration,[1]; [10],11.4 ± 11.5 days
same,Mortality,[1]; [10],0/14
same,% Inhibition 1 (incidence),[1]; [11],11.6%
same,IMS % Inhibition 3,[1]; [11],41.4%
same,IMS value,[1]; [11],27.7 ± 23.1
same,Incidence,[1]; [11],9/14
same,MMS % Inhibition 2,[1]; [11],13.8%
same,MMS value,[1]; [11],2.5 ± 2.0
same,Mean Duration,[1]; [11],7.9 ± 6.5 days
same,Mortality,[1]; [11],0/14
same,% Inhibition 1 (incidence),[1]; [12],21.5%
same,IMS % Inhibition 3,[1]; [12],29.2%
same,IMS value,[1]; [12],33.5 ± 32.2
same,Incidence,[1]; [12],8/14
same,MMS % Inhibition 2,[1]; [12],20.7%
same,MMS value,[1]; [12],2.3 ± 2.1
same,Mean Duration,[1]; [12],9.1 ± 8.6 days
same,Mortality,[1]; [12],0/14
same,% Inhibition 1 (incidence),[2]; LAQ 5.0 mg/kg oral daily 30 d,52.9%
same,GMS % Inhibition 3,[2]; LAQ 5.0 mg/kg oral daily 30 d,71.4%
same,GMS value,[2]; LAQ 5.0 mg/kg oral daily 30 d,0.6 ± 0.9
same,Incidence,[2]; LAQ 5.0 mg/kg oral daily 30 d,8/10
same,MMS % Inhibition 2,[2]; LAQ 5.0 mg/kg oral daily 30 d,55.9%
same,MMS value,[2]; LAQ 5.0 mg/kg oral daily 30 d,1.5 ± 1.8
same,Mean Duration,[2]; LAQ 5.0 mg/kg oral daily 30 d,4.2 ± 6.0 days
same,Mean Onset,[2]; LAQ 5.0 mg/kg oral daily 30 d,26.9 ± 6.0 days
same,Mortality,[2]; LAQ 5.0 mg/kg oral daily 30 d,0/20
same,% Inhibition 1 (incidence),[2]; LAQ 25.0 mg/kg oral daily 30 d,88.2%
same,GMS % Inhibition 3,[2]; LAQ 25.0 mg/kg oral daily 30 d,95.2%
same,GMS value,[2]; LAQ 25.0 mg/kg oral daily 30 d,0.1 ± 0.4
same,Incidence,[2]; LAQ 25.0 mg/kg oral daily 30 d,2/20
same,MMS % Inhibition 2,[2]; LAQ 25.0 mg/kg oral daily 30 d,91.2%
same,MMS value,[2]; LAQ 25.0 mg/kg oral daily 30 d,0.3 ± 1.0
same,Mean Duration,[2]; LAQ 25.0 mg/kg oral daily 30 d,0.8 ± 2.6 days
same,Mean Onset,[2]; LAQ 25.0 mg/kg oral daily 30 d,30.3 ± 2.6 days
same,Mortality,[2]; LAQ 25.0 mg/kg oral daily 30 d,0/20
same,inhibition at 5 mg/kg,"[3]; Mus musculus, po, 0 h, laquinimod 5 mg/kg/day gavage, alone or + GA-blocking 12.5 mg/kg day 0, read-out: % inhibition compared to control (GMS)",31.2%
same,inhibition at 25 mg/kg,"[3]; Mus musculus, po, 0 h, laquinimod 25 mg/kg/day gavage, alone or + GA-blocking 12.5 mg/kg day 0, read-out: % inhibition compared to control (GMS)",54.4%
same,Group Mean Score,[3]; [13],2.25**
same,Incidence,[3]; [13],13/13
same,Mean Disease Duration,[3]; [13],13.2*** days
same,Mean Maximal Score,[3]; [13],4.38*
same,Mean Onset,[3]; [13],16.8* days
same,Group Mean Score,[3]; [14],1.49***
same,Incidence,[3]; [14],14/15
same,Mean Disease Duration,[3]; [14],10.0*** days
same,Mean Maximal Score,[3]; [14],3.27***
same,Mean Onset,[3]; [14],20.3** days
same,Mortality,"[3]; mouse, in vivo",0/15 and 2/13
